Read-outs that look alike come from different tables or passages of the source.
How the values were obtained:
[1] = Nonclinical pharmacokinetics in cynomolgus monkeys; conditions: cynomolgus monkey, in vivo
Experimental: A sandwich immunoassay was developed using an affinity purified goat polyclonal antibody, specific to h-SCP that was pre-coated onto a microplate with integrated electrodes. h-SCP molecules present in the sample will bind to the capture polyclonal antibody coated on the plate. After washing away any unbound substances, a sulfo-tagged mouse monoclonal anti-h-SCP antibody was added. This conjugated antibody will bind to the h-SCP molecules captured on the microplate and the quantity of analyte was determined by electrochemiluminescence. The amount of signal generated is directly proportional to the h-SCP concentration in the sample or standard. The standard curve range is 3.125-1600 pg/mL with a quantifiable range from 10-800 pg/mL. A sample volume of 25 μL (in duplicate) is required for this assay. This immunoassay is specific for human and dog stresscopin and human urocortin III (h-UCN3). […] After completion of the analysis, based on a comparison of reference standards between the ELISA and HPLC method, a correction factor of 1.57 was applied to all bioanalytical data.
The nonclinical pharmacokinetics of h-SCP (SEQ ID NO:1) and pegylated stresscopin-like peptides were studied in rats, dogs, and cynomolgus monkeys (cyno). Nonclinical pharmacokinetic studies focused on characterization of IV infusion at pharmacologically relevant dose levels, supplemented with IV and SC bolus and toxicokinetic analysis.

[2] = test system: anaesthetized male Sprague-Dawley rats; assay: Hemodynamics in anaesthetized rats (IV bolus); type: in vivo, rat; conditions: IV bolus 0.13 μg/kg to 44 μg/kg
Experimental: The hemodynamic profile of h-SCP (SEQ ID NO:1) was determined in sodium pentobarbital anaesthetized male Sprague-Dawley rats (FIG. 10). A SPR-320 Mikro-Tip® integrated catheter-tipped micro-manometer (Millar Instruments, Houston, Tex., U.S.A.) was placed in the right femoral artery for blood pressure measurements, and another one directly in the left ventricle for LV pressure measurement. […] The changes in hemodynamic parameters induced by h-SCP (SEQ ID NO:1, full circle in FIG. 10) were blocked by pretreatment with anti-sauvagine-30 (SEQ ID NO:118, open circle in FIG. 10).

[3] = female, cyno IV infusion 3 hours, F, 16.7 ng/kg/min
[4] = female, cyno IV infusion 3 hours, F, 33.3 ng/kg/min
[5] = female, cyno IV infusion 3 hours, F, 100 ng/kg/min
[6] = male, cyno IV infusion 3 hours, M, 16.7 ng/kg/min
[7] = male, cyno IV infusion 3 hours, M, 33.3 ng/kg/min
[8] = male, cyno IV infusion 3 hours, M, 100 ng/kg/min

Question: For “H-TKFTLSLDVPTNIMNLLFNIAKAKNLRAQAAANAHLMAQI-NH2 [SEQ ID NO: 1, TKFTLSLDVPTNIMNLLFNIAKAKNLRAQAAANAHLMAQI-NH2]”, which “time to apparent steady-state plasma concentration after initiation of infusion” value ([1]; iv) is on record?
Answer: ≤ 1 h

Question: What about the half-life ([1]; monkeys, two-compartment analysis, read-out: alpha-phase half-life (t1/2 alpha)) of the same substance?
Answer: < 5 min

Question: And the clearance ([1]; cynomolgus monkeys, 16.7 to 100 ng/kg/min, read-out: clearance values (CL))?
Answer: 30 to 40 mL/min/kg

Question: What about the Vss ([1]; female, iv) of the same substance?
Answer: 921 mL/kg

Question: What about the half-life ([1]; female, iv, 33.3 ng/kg/min, cyno IV infusion 3 hours, F, 33.3 ng/kg/min, read-out: t1/2 alpha) of the same substance?
Answer: 4 min

Question: What about the half-life ([1]; female, iv, 33.3 ng/kg/min, cyno IV infusion 3 hours, F, 33.3 ng/kg/min, read-out: t1/2 terminal) of the same substance?
Answer: 14.8 min

Question: What about the Vd ([1]; female, iv, Vss) of the same substance?
Answer: 0.848 L/kg

Question: And the half-life ([1]; female, iv, t1/2 alpha)?
Answer: 3.1 min

Question: What about the AUC(0-inf) [1, 3] of the same substance?
Answer: 1.31 ng·h/mL

Question: And the Cmax [1, 3]?
Answer: 0.613 ng/mL

Question: What about the clearance ([1]; female, cyno IV infusion 3 hours, F, 16.7 ng/kg/min, read-out: CL) of the same substance?
Answer: 39.7 mL/min/kg

Question: What about the AUC(0-inf) [1, 4] of the same substance?
Answer: 2.34 ng·h/mL

Question: And the Cmax [1, 4]?
Answer: 0.958 ng/mL

Question: What about the clearance ([1]; female, cyno IV infusion 3 hours, F, 33.3 ng/kg/min, read-out: CL) of the same substance?
Answer: 42.9 mL/min/kg

Question: And the Vd ([1]; female, cyno IV infusion 3 hours, F, 33.3 ng/kg/min, read-out: Vss)?
Answer: 0.931 L/kg

Question: What about the AUC(0-inf) [1, 5] of the same substance?
Answer: 7.67 ng·h/mL

Question: What about the Cmax [1, 5] of the same substance?
Answer: 3.16 ng/mL

Question: And the clearance ([1]; female, cyno IV infusion 3 hours, F, 100 ng/kg/min, read-out: CL)?
Answer: 39.1 mL/min/kg

Question: And the Vss ([1]; male, iv)?
Answer: 899 mL/kg

Question: And the half-life ([1]; male, iv, 33.3 ng/kg/min, cyno IV infusion 3 hours, M, 33.3 ng/kg/min, read-out: t1/2 alpha)?
Answer: 3.7 min

Question: What about the half-life ([1]; male, iv, 33.3 ng/kg/min, cyno IV infusion 3 hours, M, 33.3 ng/kg/min, read-out: t1/2 terminal) of the same substance?
Answer: 26 min

Question: What about the Vd ([1]; male, iv, Vss) of the same substance?
Answer: 0.788 L/kg

Question: And the half-life ([1]; male, iv, t1/2 alpha)?
Answer: 2.9 min

Question: And the AUC(0-inf) [1, 6]?
Answer: 1.73 ng·h/mL

Question: What about the Cmax [1, 6] of the same substance?
Answer: 0.873 ng/mL

Question: What about the clearance ([1]; male, cyno IV infusion 3 hours, M, 16.7 ng/kg/min, read-out: CL) of the same substance?
Answer: 30.2 mL/min/kg

Question: And the AUC(0-inf) [1, 7]?
Answer: 3.47 ng·h/mL

Question: What about the Cmax [1, 7] of the same substance?
Answer: 1.48 ng/mL

Question: What about the clearance ([1]; male, cyno IV infusion 3 hours, M, 33.3 ng/kg/min, read-out: CL) of the same substance?
Answer: 29.2 mL/min/kg

Question: What about the Vd ([1]; male, cyno IV infusion 3 hours, M, 33.3 ng/kg/min, read-out: Vss) of the same substance?
Answer: 0.611 L/kg

Question: And the AUC(0-inf) [1, 8]?
Answer: 9.79 ng·h/mL

Question: And the Cmax [1, 8]?
Answer: 4.45 ng/mL

Question: And the clearance ([1]; male, cyno IV infusion 3 hours, M, 100 ng/kg/min, read-out: CL)?
Answer: 30.7 mL/min/kg

Question: What about the hemodynamic profile [2] of the same substance?
Answer: dose-dependent increases in heart rate, LV developed pressure (+dP/dt), and a corresponding decrease in blood pressure
